Reference: patent publication US20230416262A1, “TRPML MODULATORS” (Casma Therapeutics, Inc., priority 2020, published 2023)

Tested on: THP-1 cells
Assay: Lamp1 lysosomal exocytosis assay
Assay type: cell-based
Conditions: Homo sapiens, 55 min, 55 min incubation, top dose 20 μM
Description: For the Lamp1 lysosomal exocytosis assay, a human monocytic suspension cell line (THP-1) was used. Cells in culture should be used between a density of […] and 1.2e6/mL on the day of the assay. For each 96-well assay plate to be used, pellet 11e6 THP-1 cells at 330×g for 5 min in a 50 mL conical tube, aspirate media and resuspend in 22 mLs of RPMI 1640/10% FBS media for a final cell concentration of 5e5/mL. Prior to addition of cells to the assay plate, perform a 7 pt dilution curve using a top dose of compound at 2 mM and use a 3-fold serial dilution, the 8th point is DMSO only. Final top dose of compound in the assay was 20 μM. 2 μL of each serial dilution was transferred to a new 96-well v-bottom assay plate. 198 μL of cells (1e5 total cells/well) was prepared as above in each well of the assay plate and incubated at 37° C./5% CO2/95% RH for 55 min. After the 55 min incubation, cells were pelleted for 5 min at 4 C at 400×g in a tabletop centrifuge. The media was separated from the cell pellets in the plate. The pellets were washed using 200 μL ice cold buffer (PBS Ca^++/Mg^++ containing 2% final BSA and 80 μM final Dynasore). Cells were pelleted again at 400×g-5 min in a 4° C. tabletop centrifuge. Buffer was separated from cells. Each well was suspended in 75 uL Lamp1-PE antibody buffer (PBS Ca^++/Mg^++ containing 2% final BSA with 80 uM final Dynasore and 1:800 final dilution of Lamp 1-PE labeled antibody). After a 45 min antibody incubation on ice, 25 μL of sytox green was added (I drop/mL buffer), and each well was mixed and incubated for an additional 15 min on ice. After the 15 min sytox green incubation, 100 μL of ice-cold buffer (PBS Ca^++/Mg^++ containing 2% final BSA and 80 uM final Dynasore) was added and cells were pelleted for 5 min at 400×g. The buffer was removed and each sample was resuspended in 100 uL of ice-cold buffer (PBS Ca^++/Mg^++ containing 2% final BSA and 80 μM final Dynasore). FACs gating strategy: FACS analyze for sytox green (A488) and Lamp1-PE (DsRed). First gate against FSC-A/SSC-A to find non-fragmented or ‘live’ THP-1 cells. Next gate against FITC-A/FSC-A to omit sytox green positive cells. Then gate for FSC-A/FSC-H to remove any doublet cells. The last gate was a histogram for PE. The statistics for ‘count’ and ‘geometric mean fluorescence intensity’ (gWFI) for PE were repoted on the last gate.
Compounds having an activity designated as “++++” provided an exocytosis readout of ≤0.50 μM; compounds having an activity designated as “+++” provided an exocytosis readout of 0.51-1.00 μM; compounds having an activity designated as “++” provided an exocytosis readout of 1.01-5.00 μM; and compounds having an activity designated as “+” provided an exocytosis readout of ≥5.01 μM

Compound | EC50 [µM]
O=C(CCC1CCCO1)N1CCC2(CC1)CN(S(=O)(=O)c1ccc(C(F)F)cc1)c1ccccc12 (stereo not drawn) [Compound I-252, 1-(1-((4-(difluoromethyl)phenyl)sulfonyl)spiro[indoline-3,4′-piperidin]-1′-yl)-3-(tetrahydrofuran-2-yl)propan-1-one] | ≥ 5.01
O=C(OCc1ccccc1)N1CCC2(CC1)CN(C(=O)c1ccc(C(F)F)cc1)c1ccccc12 [Compound I-185, benzyl 1-(4-(difluoromethyl)benzoyl)spiro[indoline-3,4′-piperidine]-1′-carboxylate] | ≥ 5.01
O=C(NCc1cccnc1)C1CCC2(CC1)CN(S(=O)(=O)c1ccc(C(F)F)cc1)c1ccccc12 (stereo not drawn) [Compound I-232, 1′-((4-(difluoromethyl)phenyl)sulfonyl)-N-(pyridin-3-ylmethyl)spiro[cyclohexane-1,3′-indoline]-4-carboxamide] | ≥ 5.01
O=C(C1CCC2(CC1)CN(S(=O)(=O)c1ccc(C(F)F)cc1)c1ccccc12)N1CCC(F)(F)CC1 (stereo not drawn) [Compound I-239, (1′-((4-(difluoromethyl)phenyl)sulfonyl)spiro[cyclohexane-1,3′-indolin]-4-yl)(4,4-difluoropiperidin-1-yl)methanone] | ≥ 5.01
O=C(CC1CCCO1)N1CCC2(CC1)CN(S(=O)(=O)c1ccc(C(F)F)cc1)c1ccccc12 (stereo not drawn) [Compound I-256, 1-(1-((4-(difluoromethyl)phenyl)sulfonyl)spiro[indoline-3,4′-piperidin]-1′-y1)-2-(tetrahydrofuran-2-yl)ethan-1-one] | ≥ 5.01
CCOCCNC(=O)N1CCC2(CC1)CN(S(=O)(=O)c1ccc(C(F)F)cc1)c1ccccc12 [Compound I-196, 1-((4-(difluoromethyl)phenyl)sulfonyl)-N-(2-ethoxyethyl)spiro[indoline-3,4′-piperidine]-1′-carboxamide] | ≥ 5.01
O=C(NCCC(F)(F)F)N1CCC2(CC1)CN(S(=O)(=O)c1ccc(C(F)F)cc1)c1ccccc12 [Compound I-214, 1-((4-(difluoromethyl)phenyl)sulfonyl)-N-(3,3,3-trifluoropropyl)spiro[indoline-3,4′-piperidine]-1′-carboxamide] | ≥ 5.01
O=C(Nc1ccccc1)N1CCC2(CC1)CN(S(=O)(=O)c1ccc(C(F)F)cc1)c1ccccc12 [Compound I-197, 1-((4-(difluoromethyl)phenyl)sulfonyl)-N-phenylspiro[indoline-3,4′-piperidine]-1′-carboxamide] | ≥ 5.01
O=C(OCc1ccccc1)N1CCC2(CC1)CN(S(=O)(=O)c1ccc3c(c1)COC3)c1ccccc12 [Compound I-183, benzyl 1-((1,3-dihydroisobenzofuran-5-yl)sulfonyl)spiro[indoline-3,4′-piperidine]-1′-carboxylate] | ≤ 0.5
Cn1cnc(COC(=O)N2CCC3(CC2)CN(S(=O)(=O)c2ccc(C(F)F)cc2)c2ccccc23)c1 [Compound I-172, (1-methyl-1H-imidazol-4-yl)methyl 1-((4-(difluoromethyl)phenyl)sulfonyl)spiro[indoline-3,4′-piperidine]-1′-carboxylate] | ≥ 5.01
CN(C(=O)C1CCC2(CC1)CN(S(=O)(=O)c1ccc(C(F)F)cc1)c1ccccc12)c1nccn1C (stereo not drawn) [Compound I-245, 1′-((4-(difluoromethyl)phenyl)sulfonyl)-N-methyl-N-(1-methyl-1H-imidazol-2-yl)spiro[cyclohexane-1,3′-indoline]-4-carboxamide] | ≥ 5.01
CCn1ccc(COC(=O)N2CCC3(CC2)CN(S(=O)(=O)c2ccc(C(F)F)cc2)c2ccccc23)n1 [Compound I-177, (1-ethyl-1H-pyrazol-3-yl)methyl 1-((4-(difluoromethyl)phenyl)sulfonyl)spiro[indoline-3,4′-piperidine]-1′-carboxylate] | 0.51 to 1
O=S1(=O)CCC2(CC1)CN(S(=O)(=O)c1ccc(C(F)F)cc1)c1ccccc12 [Compound I-152, 1-((4-(difluoromethyl)phenyl)sulfonyl)-2′,3′,5′,6′-tetrahydrospiro[indoline-3,4′-thiopyran] 1′,1′-dioxide] | ≥ 5.01
O=C(NC1CC(F)(F)C1)N1CCC2(CC1)CN(S(=O)(=O)c1ccc(C(F)F)cc1)c1ccccc12 [Compound I-206, N-(3,3-difluorocyclobutyl)-1-((4-(difluoromethyl)phenyl)sulfonyl)spiro[indoline-3,4′-piperidine]-1′-carboxamide] | ≥ 5.01
Cc1cc(CNC(=O)N2CCC3(CC2)CN(S(=O)(=O)c2ccc(C(F)F)cc2)c2ccccc23)on1 [Compound I-212] | ≥ 5.01
CCn1cc(NC(=O)N2CCC3(CC2)CN(S(=O)(=O)c2ccc(C(F)F)cc2)c2ccccc23)cn1 [Compound I-207, 1-((4-(difluoromethyl)phenyl)sulfonyl)-N-(1-ethyl-1H-pyrazol-4-yl)spiro[indoline-3,4′-piperidine]-1′-carboxamide] | ≥ 5.01
Cc1nn(C)c(C)c1NC(=O)N1CCC2(CC1)CN(S(=O)(=O)c1ccc(C(F)F)cc1)c1ccccc12 [Compound I-217, 1-((4-(difluoromethyl)phenyl)sulfonyl)-N-(1,3,5-trimethyl-1H-pyrazol-4-yl)spiro[indoline-3,4′-piperidine]-1′-carboxamide] | ≥ 5.01
O=C(C1CCC2(CC1)CN(S(=O)(=O)c1ccc(C(F)F)cc1)c1ccccc12)N1CCC2(COC2)C1 (stereo not drawn) [Compound I-244, (1′-((4-(difluoromethyl)phenyl)sulfonyl)spiro[cyclohexane-1,3′-indolin]-4-yl)(2-oxa-6-azaspiro[3.4]octan-6-yl)methanone] | ≥ 5.01
Cc1noc(C)c1NC(=O)N1CCC2(CC1)CN(S(=O)(=O)c1ccc(C(F)F)cc1)c1ccccc12 [Compound I-213, 1-((4-(difluoromethyl)phenyl)sulfonyl)-N-(3,5-dimethylisoxazol-4-yl)spiro[indoline-3,4′-piperidine]-1′-carboxamide] | ≥ 5.01
O=C(N1CCCC1)N1CCC2(CC1)CN(S(=O)(=O)c1ccc(C(F)F)cc1)c1ccccc12 [Compound I-136, (1-((4-(difluoromethyl)phenyl)sulfonyl)spiro[indoline-3,4′-piperidin]-1′-yl)(pyrrolidin-1-yl)methanone] | ≥ 5.01
O=C(Nc1cccnc1)N1CCC2(CC1)CN(S(=O)(=O)c1ccc(C(F)F)cc1)c1ccccc12 [Compound I-198, 1-((4-(difluoromethyl)phenyl)sulfonyl)-N-(pyridin-3-yl)spiro[indoline-3,4′-piperidine]-1′-carboxamide] | ≥ 5.01
O=C(CCC(F)(F)F)N1CCC2(CC1)CN(S(=O)(=O)c1ccc(C(F)F)cc1)c1ccccc12 [Compound I-251, 1-(1-((4-(difluoromethyl)phenyl)sulfonyl)spiro[indoline-3,4′-piperidin]-1′-y1)-4,4,4-trifluorobutan-1-one] | 1.01 to 5
CN(Cc1ccon1)C(=O)C1CCC2(CC1)CN(S(=O)(=O)c1ccc(C(F)F)cc1)c1ccccc12 (stereo not drawn) [Compound I-242, 1′-((4-(difluoromethyl)phenyl)sulfonyl)-N-(isoxazol-3-ylmethyl)-N-methylspiro[cyclohexane-1,3′-indoline]-4-carboxamide] | ≥ 5.01
O=C(NCC1CCCO1)N1CCC2(CC1)CN(S(=O)(=O)c1ccc(C(F)F)cc1)c1ccccc12 (stereo not drawn) [Compound I-203, 1-((4-(difluoromethyl)phenyl)sulfonyl)-N-((tetrahydrofuran-2-yl)methyl)spiro[indoline-3,4′-piperidine]-1′-carboxamide] | ≥ 5.01
